# Results: US6399649B1, “Compositions and methods for the treatment of chronic lymphocytic leukemia” (Boston Medical Center Corporation, priority 1998, dated 2002)
# Assays:
# [1] = tested on: CLL cells; assay: Hoechst 33342 apoptosis assay, CLL cells; type: cell-based, human; details: for percentage of apoptotic cells: three days
# Method: (§1) Hoechst 33342 was dissolved in water and frozen at 33 mg/mL at −20° C. One million cells/well were incubated in duplicate or triplicate in 48 well tissue culture plates (Costar, Cambridge, Mass.) with or without drug treatment for […] in 1 mL of culture media. Cells were transferred to 12×75 mm polystyrene Falcon® 2054 FACS tubes (Becton Dickinson Labware, Lincoln Park, N.J.) and incubated for ten minutes at 37° C. with Hoechst 33342 at a final concentration of […]. 23 Cells were stored on ice until analysis on a FACS Vantage flow cytometer (Becton Dickinson, San Jose, Calif.). Hoechst 33342 dye fluorescence was excited with a UV laser and detected using a 450 bandpass filter; Data was analyzed using Cellquest software (Becton Dickinson, San Jose, Calif.).
# As a more quantitative analysis of CLL apoptosis, we utilized a flow cytometry method in which apoptotic cells are distinguished both by their reduced size (FSC) and their increased uptake of the lipophilic UV fluorescent dye Hoechst 33342 (FL-4) when the intact, heterogeneous cell population is incubated with a low concentration of the dye (0.25 ug/mL) for 10 minutes at 37° C. Specifically, cells were cultured for 72 hours in media (1), 1uMol/L rolipram (2), 40 uMol/L forskolin (3) or a combination of the two drugs (FIG. 6). The abcissa reflects forward light scatter and the ordinate Hoechst 33342 fluorescence. Apoptotic cells are characterized by reduced forward light scatter and increased Hoechst 33342 fluorescence. Previous reports of cAMP induced lymphoid apoptosis have noted that this form of programmed cell death may take 48 to 72 hours to develop maximally. […] CLL cells were cultured for 72 hours in one mL of media with the indicated concentration of rolipram with (black bars) or without (stippled bars) the addition of 40 uMol/L forskolin.
# [2] = tested on: IL-2 cultured WMC (>90% CD3+ T cells); assay: Hoechst 33342 apoptosis assay, IL-2 cultured WMC; type: cell-based, human; details: 72 hours, comparable treatments
# [3] = tested on: magnetic bead purified CD19+B cells; assay: Hoechst 33342 apoptosis assay, CD19+ B cells; type: cell-based, human; details: 72 hours
# Method: as §1
# This example describes the effect of PDE4 inhibition on normal B and T cells. […] Specifically, one million WMC were cultured with the indicated concentration of rolipram with or without the addition of 40 uMol/L forskolin for 72 hours in the presence of 2 units/mL IL-2. Apoptosis was determined by Hoechst 33342 flow cytometry. […] In contrast, magnetic bead purified CD19+B cells were sensitive to rolipram, although the increment in apoptosis observed was superimposed on a high basal apoptosis rate that has previously been reported in cultured human B cells. Given that crosslinking of cell surface immunoglobulin on resting B cells has been reported to reduce basal and forskolin-induced apoptosis in culture, we also stimulated CD19+ cells with a polyclonal Fab′2 anti-IgM/IgG reagent 30 minutes prior to the addition of the phosphodiesterase inhibitor.
# [4] = tested on: CLL cells; details: cited from earlier work
# [5] = tested on: CLL cells; assay: cAMP assay (RIA) in CLL cells; type: cell-based, human; details: 30 uMol/L with forskolin; two hours
# Method: One million cells in 1 mL were treated for two hours with or without drugs. 0.8 mL of cells were pelleted by spinning at 4,000 rpm (RCF=1,310) in microcentrifuge tube. After discarding 0.7 mL, 400 uL of ethanol was added, vortexed and left on ice for five minutes. Particulate cell debris was removed by centrifugation at 14,000 rpm (RCF=16,000). The supernatant was stored at −20° C. until the day of assay, at which time it was dried in a Speedivac (Savant, Farmingdale, N.Y.) to a volume of 50 uL. After ten-fold dilution in 10 mMol/L Tris pH 8.0, 1 mMol/L EDTA, the cAMP sample was analyzed for cAMP concentration using a cAMP RIA kit (NEN, Boston, Mass.) according to the manufacturer's instructions using the nonacetylated protocol.
# In this example, it was determined what role type 1 and type 4 PDE activity might play in the catabolism of cyclic nucleotides in CLL cells. cAMP levels were measured after culturing leukemic cells with varying concentrations of PDE-isoform specific inhibitors, either alone or in conjunction with an activator of adenylate cyclase, the diterpene forskolin. Specifically, one million freshly isolated cells were incubated with the indicated drugs for two hours prior to analysis of cAMP in cell lysates using a radioimmunoassay. The results are shown in FIG. 4 and the data are the mean of three individually assayed culture wells.
# [6] = tested on: Bal-17 cells; assay: cAMP assay (RIA) in Bal-17 cells; type: cell-based, murine; details: basal and forskolin-stimulated (data not shown)
# [7] = biological target: PDE1 enzymes; details: cited from earlier work
# [8] = Pt. 3, Rai IV, Drug Res. Ch, CH, basal 38, 10 uMol/L rolipram, 40 uMol/L forskolin or 100 uMol/L dbcAMP
# [9] = Pt. 6, Rai IV, Drug Res. Ch, basal 17 ± 4, 10 uMol/L rolipram, 40 uMol/L forskolin or 100 uMol/L dbcAMP
# [10] = Pt. 7, Rai II, Drug Res. Ch, basal 13 ± 2, 10 uMol/L rolipram, 40 uMol/L forskolin or 100 uMol/L dbcAMP
# [11] = Pt. 9, Rai IV, Drug Res. Ch, Cy, Fl, basal 4 ± 0, 10 uMol/L rolipram, 40 uMol/L forskolin or 100 uMol/L dbcAMP
# [12] = Pt. 11, Rai 0, basal 24 ± 4, 10 uMol/L rolipram, 40 uMol/L forskolin or 100 uMol/L dbcAMP
# [13] = Pt. 14 (significant population of cells with prolymphocyte morphology), Rai I, basal 13 ± 0, 10 uMol/L rolipram, 40 uMol/L forskolin or 100 uMol/L dbcAMP
smiles,measurement,setting,value
"CCCC(=O)Nc1ncnc2c1ncn2[C@@H]1O[C@@H]2COP(=O)(O)O[C@H]2[C@H]1OC(=O)CCC [dbcAMP, dibutyryl cAMP]",percentage of apoptotic cells relative to control cells,"[1]; CLL cells, 72 hours, 10 uMol/L rolipram, 40 uMol/L forskolin, dbcAMP greater than or equal to 30 mMol/L",increased significantly
same,percentage of apoptotic cells,[1]; [8],71 ± 3%
same,percentage of apoptotic cells,[1]; [9],39 ± 4%
same,percentage of apoptotic cells,[1]; [10],32 ± 4%
same,percentage of apoptotic cells,[1]; [11],46 ± 1%
same,percentage of apoptotic cells,[1]; [12],39 ± 2%
same,percentage of apoptotic cells,"[1]; Pt. 13, Rai 0, basal 2 ± 0, 10 uMol/L rolipram, 40 uMol/L forskolin or 100 uMol/L dbcAMP",23 ± 6%
same,percentage of apoptotic cells,[1]; [13],22 ± 0%
same,percentage of apoptotic cells relative to control cells,[2],did not significantly increase
same,percentage of apoptotic cells relative to control cells,"[3]; anti-Ig stimulated B cells, comparable treatments",did not significantly increase
same,percentage of apoptotic cells relative to control cells,"[3]; resting B cells, 10 uMol/L rolipram, 40 uMol/L forskolin, dbcAMP greater than or equal to 30 mMol/L",increased significantly
Cn1c(=O)c2[nH]cnc2n(C)c1=O [Theophylline],apoptosis in CLL cells,[4],induces apoptosis
C=C[C@@]1(C)CC(=O)[C@]2(O)[C@@]3(C)[C@@H](O)CCC(C)(C)[C@@H]3[C@H](O)[C@H](OC(C)=O)[C@@]2(C)O1 [forskolin],percentage of apoptotic cells,"[1]; Pt. 2, Rai IV, Drug Res. Ch, Cy, basal 18 ± 2, 10 uMol/L rolipram, 40 uMol/L forskolin or 100 uMol/L dbcAMP",46%
same,percentage of apoptotic cells,[1]; [8],59 ± 0%
same,percentage of apoptotic cells,[1]; [9],30 ± 4%
same,percentage of apoptotic cells,[1]; [10],32 ± 0%
same,percentage of apoptotic cells,"[1]; Pt. 8, Rai 0, basal 5, 10 uMol/L rolipram, 40 uMol/L forskolin",22%
same,percentage of apoptotic cells,[1]; [11],17 ± 4%
same,percentage of apoptotic cells,"[1]; Pt. 10, Rai I, basal 11, 10 uMol/L rolipram, 40 uMol/L forskolin or 100 uMol/L dbcAMP",26 ± 4%
same,percentage of apoptotic cells,[1]; [12],40 ± 3%
same,percentage of apoptotic cells,"[1]; Pt. 12, Rai IV, Drug Res. Ch, Fl, 2C, basal 0 ± 4, 10 uMol/L rolipram, 40 uMol/L forskolin or 100 uMol/L dbcAMP",43 ± 1%
same,percentage of apoptotic cells,[1]; [13],19 ± 3%
CCOC(=O)C1=C[C@]2(CC)CCCN3CCc4c(n1c1ccccc41)[C@@H]32 [vinpocetine],CLL cell cAMP,[5],not augmented above levels induced by forskolin alone
same,cAMP levels in Bal-17 cells,[6],reduced both basal and forskolin-stimulated cAMP levels
same,CLL cell apoptosis,[1]; 10 or 30 uMol/L,underwent apoptosis
same,time of peak apoptosis,[1]; CLL cells (data not shown),≤ 24 h
same,IC50,[7],21 µM
